Results published in EP1980561B1, “Substituted 1h-pyrazolo[3,4-b] pyridine derivatives active as kinase inhibitors” (NERVIANO MEDICAL SCIENCES S.R.L., priority 2007, dated 2008).
Read-outs that look alike come from different tables or passages of the source.

Assays:
[1] = target: AKT3 (Homo sapiens, UniProt Q9Y243); test: Biochemical assay for inhibitors of AKT3 kinase activity (33P trans-phosphorylation, Dowex resin)
Procedure: The N-terminal GST fusion proteins used for the assays were prepared according to the methods described in Kumar, C. C. Biochem. Biophys. ACTA 2001, 1526, 257-268, and in Alessi, D. R.. Biochem. J. 1998 331, 299-308. The in vitro kinase inhibition assay was conducted in the same way as described for AKT1. The kinase assay was run with a final enzyme concentration of 1 nM, in the presence of 180 microM ATP, 0.88 nM ^33P-γ-ATP and 28.5 microM substrate, a carboxy-terminally biotinylated peptide of the following sequence: ARKRERTYSFGHHA-biotin. The peptide was obtained in batches of >95% peptide purity from PRIMM labs Inc. (Boston MA, USA).

[2] = target: T1, AKT1 (Homo sapiens, UniProt P31749); test: Biochemical assay for inhibitors of AKT1 kinase activity (33P trans-phosphorylation, Dowex resin); design: GST (N); made in house; conditions: 5 nM enzyme, 132 microM ATP, 30 microM peptide substrate, 60 minutes at room temperature
T1 sequence (P31749 whole entry, the tested form may be a part): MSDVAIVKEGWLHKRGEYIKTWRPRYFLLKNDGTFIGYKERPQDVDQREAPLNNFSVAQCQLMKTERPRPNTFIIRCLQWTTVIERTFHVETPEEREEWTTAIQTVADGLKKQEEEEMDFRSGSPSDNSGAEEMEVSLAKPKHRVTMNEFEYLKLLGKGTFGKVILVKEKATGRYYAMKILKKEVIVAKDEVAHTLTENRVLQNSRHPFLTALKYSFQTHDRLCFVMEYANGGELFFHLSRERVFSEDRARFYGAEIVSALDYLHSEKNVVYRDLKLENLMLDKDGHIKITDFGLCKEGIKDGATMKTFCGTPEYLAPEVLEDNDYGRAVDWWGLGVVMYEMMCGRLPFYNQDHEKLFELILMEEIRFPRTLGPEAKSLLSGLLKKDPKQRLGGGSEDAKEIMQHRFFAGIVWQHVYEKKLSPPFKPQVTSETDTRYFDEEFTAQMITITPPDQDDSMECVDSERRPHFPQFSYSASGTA
Procedure: (§1) The N-terminal GST fusion proteins used for the assays were prepared according to the methods described in Kumar, C. C. Biochem. Biophys. ACTA 2001, 1526, 257-268, and in Alessi, D. R.. Biochem. J. 1998 331, 299-308.
The inhibitory activity of putative kinase inhibitors and the potency of selected compounds were determined using a trans-phosphorylation assay.
A specific substrate was incubated with the kinase in appropriate buffer conditions in the presence of ATP traced with ^33P-γ-ATP (gamma phosphate-labeled, Redivue™
Code Number AH9968, 1000-3000Ci/mmole, Amersham Biosciences Piscataway, NJ, USA), optimal cofactors and test compound.
At the end of the phosphorylation reaction, more than 98% cold and radioactive ATP were captured by an excess of Dowex ion exchange resin. The resin was allowed to settle to the bottom of reaction wells by gravity. Supernatant, containing substrate peptide, was subsequently withdrawn and transferred into a counting plate, and radioactivity (corresponding to phosphate incorporated into peptide) was evaluated by β-counting.
Kinase buffer was composed of 50 mM TRIS pH 7.5 containing10 mM MgCl2, 1 mM DTT, 3 microM Na3VO4, and 0.2 mg/mL BSA. 3X KB is buffer of the same composition and pH as KB, but with three times the concentration of each component. […]

[3] = tested on: S6 ribosomal protein phosphorylation (Ser235/236) in MCF-7 cells; test: Inhibition of AKT induced S6 ribosomal protein phosphorylation in MCF7 (immunofluorescence, ArrayScan); assay type: cell-based; conditions: Homo sapiens, compound treatment for 4 hour at 37°C, read-out: S6 phosphorylation (Ser235/236) in MCF7-cell IC50
Procedure: MCF-7 cells (ATCC# HTB-22) were seeded in 96-well poly-lysine coated clear- and flat-bottomed black plates (Matrix Technologies Inc., Hudson, NH, USA), in E-MEM medium (MEM+ Earle's BSS + 2 mM glutamine + 0.1 mM non-essential amino acids) containing 10% of FCS at a density of 7000 cells/well, and incubated overnight at 37°C, 5% CO2, 100% relative humidity. After this incubation, cells were treated with increasing compound doses for 4 hour at 37°C. Afterwards, cells were fixed with PBS/3.7% paraformaldehyde for 15 min at room temperature, wash twice with 200 µl/well D-PBS and permeabilize with a D-PBS solution containing 0.1% Triton X-100 (Sigma-Aldrich, St. Louis, MO, USA) and 0.1% powder Milk for 15 minutes (staining solution). […] Fluorescence images in the DAPI and Cy5™ channels were automatically acquired, stored and analysed using a Cellomics ArrayScan™ IV instrument (Cellomics, Pittsburgh, USA); the Cellomics Cytotoxicity Algorithm was used to quantify cytoplasmic fluorescence associated with phospho-S6 (Cy5™ signal parameter: "Mean Lyso Mass-pH") for each cell in 10 fields/well, and eventually expressed as a mean population value. […]

[4] = target: T2, AKT2 (Homo sapiens, UniProt P31751); test: Biochemical assay for inhibitors of AKT2 kinase activity (33P trans-phosphorylation, Dowex resin); conditions: 10 nM enzyme, 396 microM ATP, 8.5 microM peptide substrate
T2 construct: GST (N); made in house
T2 sequence (P31751 whole entry, species assumed): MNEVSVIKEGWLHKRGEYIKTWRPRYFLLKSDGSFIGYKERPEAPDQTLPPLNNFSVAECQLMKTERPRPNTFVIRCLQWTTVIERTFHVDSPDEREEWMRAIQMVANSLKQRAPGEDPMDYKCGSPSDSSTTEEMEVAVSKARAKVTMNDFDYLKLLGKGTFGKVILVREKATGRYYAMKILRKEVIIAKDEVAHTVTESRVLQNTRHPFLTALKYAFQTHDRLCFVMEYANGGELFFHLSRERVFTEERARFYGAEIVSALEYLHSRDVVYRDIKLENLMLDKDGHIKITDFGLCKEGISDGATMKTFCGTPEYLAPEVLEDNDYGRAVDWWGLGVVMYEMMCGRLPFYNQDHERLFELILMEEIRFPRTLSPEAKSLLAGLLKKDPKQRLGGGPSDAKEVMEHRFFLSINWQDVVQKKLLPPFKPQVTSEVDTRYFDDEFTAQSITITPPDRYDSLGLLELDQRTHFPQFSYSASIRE
Procedure: as §1
The in vitro kinase inhibition assay was conducted in the same way as described for AKT1. The kinase assay was run with a final enzyme concentration of 10 nM, in the presence of 396 microM ATP, 0.88 nM ^33P-γ-ATP and 8.5 microM substrate, a carboxy-terminally biotinylated peptide of the following sequence:
ARKRERTYSFGHHA-biotin. The peptide was obtained in batches of >95% peptide purity from PRIMM labs Inc. (Boston MA, USA).

[5] = target: T3, PKAα (Homo sapiens, UniProt P17612); test: FABS-NMR screening (3-FABS, 19F-labelled AKTide-like substrate) on PKA; assay type: biochemical; conditions: 25 nM protein, 30 µM substrate, 150 µM ATP
T3 construct: polyHis; made in house; host or cells: E. coli
Procedure: (§2) The biochemical functional NMR screening on the proteins kinase AKT-1 and PKA was performed using the 3-FABS (3-Fluorine Atoms for Biochemical Screening) technique developed by C. Dalvit and the NMR group in house (C. Dalvit et al 2003 J. Am. Chem. Soc. 125 (47): 14620).
(§3) The method require the use of a ^19F-labelled substrate. The same commercial peptide was used as substrate in both enzymatic reaction: the Tyr just before the phosphorilation site in the AKTide peptide was mutated in a 3-tryfluormethyl-Phe by Bachem.
(§4) The AKTide like peptide sequence is reported below: • H-Ala-Arg-Lys-Arg-Glu-Arg-Ala-Phe(3-CF3)-Ser-Phe-Gly-His-His-Ala-OH
The active cycled AMP-dependent human protein kinase A PKA was expressed as polyHis-tag protein in E.Coli and purified by affinity column.
(§5) Reactions were performed in an end point format in eppendorf of 0.5 ml using the buffer solution 50mM Tris, pH 7.5, 5mM MgCl2, 1mM DTT, 8% D2O and 0.001% Triton-X-100; the final volume was of 560 µl. […] The spectra were recorded using the Varian Inova 600 MHz NMR spectrometer operating at a ^19F Larmor frequency of 564 MHz and using a 5mm probe with the inner coil tuned to ^19F and the outer coil tuned to H. The data were recorded without proton decoupling with a spectral width of 12000 Hz, an acquisition time of 0.8s and a relaxation delay of 2.8s. […]

[6] = target: T1, AKT1; test: FABS-NMR screening (3-FABS, 19F-labelled AKTide-like substrate) on AKT-1; assay type: biochemical; design: The active human Ser-Thr protein kinase AKT-1 Full Length was expressed as GST fusion protein; GST (cleaved yes); made in house; host or cells: insect cells; conditions: 25 nM protein, 30 µM substrate, 1.5 mM ATP; read-out: AKT1 IC50 FABS NMR assay
Procedure: as §2, §3, §4
The active human Ser-Thr protein kinase AKT-1 Full Length was expressed as GST fusion protein in insect cells and then the GST was cleaved with PreScission protease.
as §5

Sequence of AKT3 (Q9Y243 2-479): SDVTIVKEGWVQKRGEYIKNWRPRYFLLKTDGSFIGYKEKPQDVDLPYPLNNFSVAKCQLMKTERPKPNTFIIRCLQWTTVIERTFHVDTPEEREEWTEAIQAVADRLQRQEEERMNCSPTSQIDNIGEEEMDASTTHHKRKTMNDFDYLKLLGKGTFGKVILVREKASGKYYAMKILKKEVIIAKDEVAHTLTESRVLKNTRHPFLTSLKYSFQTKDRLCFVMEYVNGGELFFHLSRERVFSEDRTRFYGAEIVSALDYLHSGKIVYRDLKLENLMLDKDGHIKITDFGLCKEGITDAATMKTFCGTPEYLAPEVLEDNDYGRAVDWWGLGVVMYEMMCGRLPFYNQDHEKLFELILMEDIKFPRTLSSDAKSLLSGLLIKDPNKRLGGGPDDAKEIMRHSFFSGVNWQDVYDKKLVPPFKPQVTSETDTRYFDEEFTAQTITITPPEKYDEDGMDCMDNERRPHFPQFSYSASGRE

| IC50 ([1]; 1 nM enzyme, 180 microM ATP, 28.5 microM peptide substrate, read-out: AKT3 IC50 Biochemical assay) [nM] | SMILES | IC50 [1] [nM] | IC50 [2] [nM] | IC50 [3] [nM] | IC50 [4] [nM] | IC50 [5] [nM] | IC50 [6] [nM] |
| --- | --- | --- | --- | --- | --- | --- | --- |
|  | NC[C@H](Cc1ccccc1)NC(=O)/C=C/c1n[nH]c2ncccc12 [Compound 1, (E)-N-((S)-2-amino-1benzyl-ethyl)-3-(1H-pyrazolo[3,4-b]pyridin-3-yl)acrylamide tris(trifluoroacetate)] | 19 | 17 | 1350 | 92 | 25 | 62 |
| 108 | CN1CCN(C[C@@H](NC(=O)/C(=C/c2n[nH]c3ncccc23)c2cn(C)c3ccc(Br)cc23)c2ccccc2)CC1 [Compound 10, (2E)-2-(5-bromo-1-methyl-1H-indol-3-yl)-N-[(1S)-2-(4-methylpiperazin-1-yl)-1-phenylethyl]-3-(1H-pyrazolo[3,4-b]pyridin-3-yl)acrylamide] |  | 149 | 16000 | 786 | 1900 | 62 |
